Reference: patent USRE36736E, “Substituted pyrroles” (Hoffman-La Roche Inc., priority 1998, dated 2000)

Molecular target: protein kinase C
Test: inhibition of protein kinase C in vitro (protein kinase-induced incorporation of 32P from [γ-32P]ATP into histone)
Type: biochemical
Details: histone substrate, read-out: IC50: concentration which reduces by 50% the protein kinase-induced incorporation of ^32 P from [γ-^32 P]ATP into histone
From the text: The IC50 figures in the following Table, represent that concentration of test compound which reduces by 50% the protein kinase-induced incorporation of ^32 P from [γ-^32 P]ATP into histone.

IC50	Compound
10 nM	Cn1cc(C2=C(c3cn(CCCSC(=N)N)c4ccccc34)C(=O)NC2=O)c2ccccc21 [3-[1-[3-(amidinothio)propyl]-3-indolyl]-4-(1-methyl-3-indolyl)-1H-pyrrole-2,5-dione]
500 nM	Cn1cc(C2=C(c3cn(CCC(N)=O)c4ccccc34)C(=O)NC2=O)c2ccccc21 [3-[1-(2-carbamoylethyl)-3-indolyl]-4-(1-methyl-3-indolyl)-1H-pyrrole-2,5-dione]

Compound	IC50
Cn1cc(C2=C(c3cn(CCCN=C=S)c4ccccc34)C(=O)NC2=O)c2ccccc21 [3-[1-(3-isothiocyanatopropyl)-3-indolyl]-4-(1-methyl-3-indolyl)-1H-pyrrole-2,5-dione]	8 nM
